According to patent US20240150365A1 (Hotspot Therapeutics, Inc., priority 2022, published 2024):

Assays:
MALT1 = molecular target: T1, MALT1 (Homo sapiens, UniProt Q9UDY8); assay: MALT-1 Fluorogenic Peptide Cleavage Assay (MALT1 inhibition assay); format: biochemical; settings: Avi-tagged FL MALT-1, Ac-LRSR-AMC peptide substrate, 30 min pre-incubation, 90 min reaction
T1 construct: Avi-tagged FL MALT-1 (Pharmaron, stored at −70° C.); Avi tag
T1 sequence (Q9UDY8 1-824): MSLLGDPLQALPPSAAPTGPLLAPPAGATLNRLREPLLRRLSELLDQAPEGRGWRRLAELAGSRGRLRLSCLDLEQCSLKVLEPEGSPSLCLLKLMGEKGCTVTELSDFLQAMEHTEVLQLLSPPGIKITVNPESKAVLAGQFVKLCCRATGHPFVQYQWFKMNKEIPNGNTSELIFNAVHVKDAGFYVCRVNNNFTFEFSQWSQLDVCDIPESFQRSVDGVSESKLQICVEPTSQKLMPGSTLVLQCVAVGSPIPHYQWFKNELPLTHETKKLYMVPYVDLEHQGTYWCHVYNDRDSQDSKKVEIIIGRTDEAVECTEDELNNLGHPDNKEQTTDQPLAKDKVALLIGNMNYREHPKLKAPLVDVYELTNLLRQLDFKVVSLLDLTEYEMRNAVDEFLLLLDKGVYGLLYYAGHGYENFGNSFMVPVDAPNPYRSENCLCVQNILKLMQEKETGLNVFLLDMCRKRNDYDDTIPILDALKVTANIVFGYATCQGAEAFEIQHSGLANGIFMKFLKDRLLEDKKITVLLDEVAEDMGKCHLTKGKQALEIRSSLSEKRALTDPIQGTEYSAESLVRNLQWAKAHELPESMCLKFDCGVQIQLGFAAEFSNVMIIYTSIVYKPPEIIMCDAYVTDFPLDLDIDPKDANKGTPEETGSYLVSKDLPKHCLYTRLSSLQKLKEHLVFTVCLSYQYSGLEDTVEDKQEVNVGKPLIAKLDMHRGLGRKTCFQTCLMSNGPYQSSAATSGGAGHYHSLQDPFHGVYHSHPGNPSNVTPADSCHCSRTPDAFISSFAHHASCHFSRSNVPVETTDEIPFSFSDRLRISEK
In short: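 Avi-tagged full-length MALT1 pre-incubated 30 min with compound (2% DMSO final), then cleavage of Ac-LRSR-AMC followed over 90 min at room temperature. AMC fluorescence read at 342/441 nm; % inhibition fitted to sigmoidal curves for IC50.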

NF-kB = NF-kB reporter assay in Jurkat cells stimulated with aCD3/aCD28/PMA; format: cell-based; settings: Homo sapiens, Jurkat, Jurkat cells, 1 hr compound incubation, aCD3/aCD28/PMA stimulation 4 hr, One-Glo readout; read-out: NF-kB Reporter Assay IC50
In short: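 Jurkat cells (25,000/well, serum-free RPMI 1640) preincubated 1 hr at 37° C with serially diluted compound, then stimulated with aCD3/aCD28/PMA (final 5 μg/mL, 5 μg/mL, 0.03 μg/mL) for 4 hr. Reporter luminescence read with One-Glo; IC50 derived.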

IC50 (MALT1) [nM] | IC50 (NF-kB) [nM] | SMILES
> 2500 | < 400 | Cn1ncc2cccc(NS(=O)(=O)c3ccc(-c4cccnc4)nc3)c21 [Example I-109, N-(1-Methyl-1H-Indazol-7-yl)-[2,3′-Bipyridine]-5-Sulfonamide]
> 2500 | < 400 | CN(C)c1ccc(-c2ccc(S(=O)(=O)Nc3cccc4cnn(C)c34)cn2)cn1 [Example I-110, 6′-(Dimethylamino)-N-(1-Methyl-1H-Indazol-7-yl)-[2,3′-Bipyridine]-5-Sulfonamide]
> 2500 | < 400 | COc1cccc(-c2ccc(S(=O)(=O)Nc3cccc4cnn(C)c34)cn2)n1 [Example I-111, 6′-Methoxy-N-(1-Methyl-1H-Indazol-7-yl)-[2,2′-Bipyridine]-5-Sulfonamide]
> 2500 | > 2500 | Cn1cc(-c2ccc(S(=O)(=O)Nc3cccc4cnn(C)c34)cn2)ccc1=O [Example I-112, 1′-Methyl-N-(1-Methyl-1H-Indazol-7-yl)-6′-Oxo-1′,6′-Dihydro-[2,3′-Bipyridine]-5-Sulfonamide]
> 2500 | 400 to 1000 | Cc1ncccc1-c1ccc(S(=O)(=O)Nc2cccc3cnn(C)c23)cn1 [Example I-113, 2′-Methyl-N-(1-Methylindazol-7-yl)-[2,3′-Bipyridine]-5-Sulfonamide]
> 2500 | > 2500 | Cc1ncncc1-c1ccc(S(=O)(=O)Nc2cccc3cnn(C)c23)cn1 [Example I-115]
> 2500 | 400 to 1000 | Cn1ncc2cccc(NS(=O)(=O)c3ccc(-c4ccncc4)nc3)c21 [Example I-116, N-(1-METHYL-1H-INDAZOL-7-YL)-[2,4′-BIPYRIDINE]-5-SULFONAMIDE]
> 2500 | > 2500 | Cn1ccc(-c2ccc(S(=O)(=O)Nc3cccc4cnn(C)c34)cn2)cc1=O [Example I-117, 1′-Methyl-N-(1-Methyl-1H-Indazol-7-yl)-2′-Oxo-1′,2′-Dihydro-[2,4′-Bipyridine]-5-Sulfonamide]
> 2500 | > 2500 | Cn1ncc2cccc(NS(=O)(=O)c3ccc(-c4cccc(=O)[nH]4)nc3)c21 [Example I-118, N-(1-Methyl-1H-Indazol-7-yl)-6′-Oxo-1′,6′-Dihydro-[2,2′-Bipyridine]-5-Sulfonamide]
> 2500 | < 400 | Cc1cc(-c2ccc(S(=O)(=O)Nc3cccc4cnn(C)c34)cn2)n(C)n1 [Example I-119, 6-(2,5-Dimethylpyrazol-3-yl)-N-(1-Methyl-Indazol-7-yl)Pyridine-3-Sulfonamide]
> 2500 | < 400 | Cn1ncc2cccc(NS(=O)(=O)c3ccc(-c4ccncc4F)nc3)c21 [Example I-120, 3′-Fluoro-N-(1-Methylindazol-7-yl)-[2,4′-Bipyridine]-5-Sulfonamide]
> 2500 | < 400 | Cn1ncc2cccc(NS(=O)(=O)c3ccc(-c4cncc(Cl)c4)nc3)c21 [Example I-121, 5′-Chloro-N-(1-Methyl-1H-Indazol-7-yl)-[2,3′-Bipyridine]-5-Sulfonamide]
> 2500 | < 400 | Cc1ccc(-c2ccc(S(=O)(=O)Nc3cccc4cnn(C)c34)cn2)cn1 [Example I-122, 6′-Methyl-N-(1-Methyl-1H-Indazol-7-yl)-[2,3′-Bipyridine]-5-Sulfonamide]
> 2500 | 400 to 1000 | Cc1ccncc1-c1ccc(S(=O)(=O)Nc2cccc3cnn(C)c23)cn1 [Example I-123, 4′-Methyl-N-(1-Methyl-1H-Indazol-7-yl)-2,3′-Bipyridine-5-Sulfonamide]
> 2500 | > 2500 | Cc1cnn(C)c1-c1ccc(S(=O)(=O)Nc2cccc3cnn(C)c23)cn1 [Example I-124, 6-(1,4-Dimethyl-1H-Pyrazol-5-yl)-N-(1-Methyl-1H-Indazol-7-yl)Pyridine-3-Sulfonamide]
> 2500 | < 400 | COc1nn(C)cc1-c1ccc(S(=O)(=O)Nc2cccc3cnn(C)c23)cn1 [Example I-125, 6-(3-Methoxy-1-Methyl-1H-Pyrazol-4-yl)-N-(1-Methyl-1H-Indazol-7-yl)Pyridine-3-Sulfonamide]

IC50 (MALT1) [nM] | IC50 (NF-kB) [nM] | SMILES
< 400 | < 400 | CCc1ccc2cnn(C)c2c1NS(=O)(=O)c1ccc(-n2nccc2C(F)(F)F)nc1 [Example I-126, N-(6-ethyl-1-methyl-1H-indazol-7-yl)-6-(5-(trifluoromethyl)-1H-pyrazol-1-yl)pyridine-3-sulfonamide]
< 400 | < 400 | COc1ccc2cnn(C)c2c1NS(=O)(=O)c1ccc(-n2ccc(C(F)F)n2)nc1 [Example I-127, 6-(3-(Difluoromethyl)-1H-Pyrazol-1-yl)-N-(6-Methoxy-1-Methyl-1H-Indazol-7-yl)Pyridine-3-Sulfonamide]
1000 to 2500 | 400 to 1000 | COc1ccc2nnn(C)c2c1NS(=O)(=O)c1ccc(-n2ccc(C(F)(F)F)n2)nc1 [Example I-128, N-(6-methoxy-1-methyl-1H-benzo[d][1,2,3]triazol-7-yl)-6-(3-(trifluoromethyl)-1H-pyrazol-1-yl)pyridine-3-sulfonamide]
< 400 | < 400 | COc1ccc2cnn(C)c2c1NS(=O)(=O)c1ccc(-n2cc(C)c(C)n2)nc1 [Example I-129, 6-(3,4-dimethyl-1H-pyrazol-1-yl)-N-(6-methoxy-1-methyl-1H-indazol-7-yl)pyridine-3-sulfonamide]
> 2500 | 1000 to 2500 | Cn1ncc2cccc(NS(=O)(=O)c3ccc(-c4cncc(C#N)c4)nc3)c21 [Example I-130, 5′-cyano-N-(1-methylindazol-7-yl)-[2,3′-bipyridine]-5-sulfonamide]
> 2500 | < 400 | Cc1cncc(-c2ccc(S(=O)(=O)Nc3cccc4cnn(C)c34)cn2)c1 [Example I-131, 5′-methyl-N-(1-methylindazol-7-yl)-[2,3′-bipyridine]-5-sulfonamide]
> 2500 | < 400 | Cc1cc(-c2ccc(S(=O)(=O)Nc3cccc4cnn(C)c34)cn2)ccn1 [Example I-132, 2′-methyl-N-(1-methylindazol-7-yl)-[2,4′-bipyridine]-5-sulfonamide]
> 2500 | > 2500 | Cn1ncc2cccc(NS(=O)(=O)c3ccc(-c4cncnc4)nc3)c21 [Example I-133, N-(1-methylindazol-7-yl)-6-(pyrimidin-5-yl)pyridine-3-sulfonamide]
> 2500 | < 400 | Cn1ncc2cccc(NS(=O)(=O)c3ccc(-c4cncc(F)c4)nc3)c21 [Example I-134, 5′-Fluoro-N-(1-Methyl-1H-Indazol-7-yl)-[2,3′-Bipyridine]-5-Sulfonamide]
> 2500 | 400 to 1000 | Cc1ncc(-c2ccc(S(=O)(=O)Nc3cccc4cnn(C)c34)cn2)cn1 [Example I-135, N-(1-Methyl-1H-Indazol-7-yl)-6-(2-Methylpyrimidin-5-yl)Pyridine-3-Sulfonamide]
> 2500 | > 2500 | Cn1ncc2cccc(NS(=O)(=O)c3ccc(-c4ccc(O)nc4)nc3)c21 [Example I-136, 6′-Hydroxy-N-(1-Methyl-1H-Indazol-7-yl)-[2,3′-Bipyridine]-5-Sulfonamide]
> 2500 | > 2500 | Cn1ncc2cccc(NS(=O)(=O)c3ccc(-c4cncc(S(C)(=O)=O)c4)nc3)c21 [Example I-137, N-(1-Methyl-1H-Indazol-7-yl)-5′-(Methylsulfonyl)-[2,3′-Bipyridine]-5-Sulfonamide]
> 2500 | < 400 | Cn1ncc2cccc(NS(=O)(=O)c3ccc(-c4ccn(C(F)F)n4)nc3)c21 [Example I-138, 6-(1-(Difluoromethyl)-1H-Pyrazol-3-yl)-N-(1-Methyl-1H-Indazol-7-yl)Pyridine-3-Sulfonamide]
> 2500 | < 400 | COc1ncccc1-c1ccc(S(=O)(=O)Nc2cccc3cnn(C)c23)cn1 [Example I-139, 2′-Methoxy-N-(1-Methyl-1H-Indazol-7-yl)-[2,3′-Bipyridine]-5-Sulfonamide]
< 400 | < 400 | COc1ccc2cnn(C)c2c1NS(=O)(=O)c1ccc(-n2nc(C)c(C)c2C)nc1 [Example I-140, N-(6-Methoxy-1-Methyl-1H-Indazol-7-yl)-6-(3,4,5-Trimethyl-1H-Pyrazol-1-yl)Pyridine-3-Sulfonamide]
